Data on one molecule can be found in patent US20220356525A1, “METHODS OF DETERMINING WHETHER PATIENTS SUFFERING FROM ACUTE MYELOID LEUKEMIA WILL ACHIEVE A RESPONSE TO AN MYC-TARGETING THERAPY” (INSERM (INSTITUT NATIONAL DE LA SANTÉ ET DE LA RECHERCHE …, priority 2019, published 2022).

For experiment [1], the system named is CRISPR/Cas9-edited KG1a clones. Description: OTX015 sensitivity and colony formation of CRISPR/Cas9-edited KG1a clones with MTHFR variants. Conditions: 677 TT and 1298 CC homozygous versus wild-type clones; 1 μM OTX015. The class given is cell-based, human. The source says: Error bars represent mean±SD. Experiment performed at least two independent times.
(§1) Error bars represent mean±SD.
Additional information is provided in the supplementary material and methods section.
Finally, we engineered a tractable MLL-AF9-driven mouse model of AML in which Mtfhr genotype status was either homozygous wild-type, heterozygous or homozygous knockout.

Another experiment deals with IMS-M2 AML cells. The experiment is described as follows: OTX015 sensitivity after shRNA knockdown of folate cycle enzymes. The class given is cell-based, human. Conditions: for increase of IC50 of OTX015: average.
The test system of another experiment is U937 cells. Description: OTX015 sensitivity after EED, EHMT1, SETDB1 hairpins. The class given is cell-based, human. Conditions: hairpins reducing EED, EHMT1 and SETB1 protein.
For another experiment, the system named is U937 cell colonies. Description: Colony formation assay with OTX015 at reduced folic acid. The class given is cell-based, human. The following applies: 125-fold decrease in folic acid (1 mg/L to 0.008 mg/L). Here is the method: (§2) To investigate further the relationship between folic acid starvation and increased BET inhibitor resistance, we compiled a panel of AML cell lines harboring diverse genetic alterations. […] The effect of folic acid removal was also evaluated in cell lines treated either with a second BET inhibitor, JQ1, or with THZ-1, a covalent inhibitor of CDK7, another key factor in transcriptional elongation at super-enhancer regions and a strong inhibitor of MYC expression (data not shown). […] Therefore, we studied selective suppression of BRD4 by short hairpin RNA (shRNA) in two AML cell lines.

In another experiment the test system is IMS-M2 and U937 cells. Description: OTX015 resistance after SPI1 knockdown with folate withdrawal or MTHFR suppression. The format is cell-based, human. Conditions: SPI1 depletion; folate cycle disturbed or MTHFR suppressed. The source says:
To explore functionally whether SPI1 transcriptional program activation induced by folate cycle disruption promotes resistance to BRD4 inhibition, we knocked down SPI1 in IMS-M2 and U937 cells before folate withdrawal or MTHFR suppression (FIGS. 5F and 5G).

In experiment [2] the test system is MLL-AF9-transformed Mthfr knockout primary murine cells. The experiment is described as follows: OTX015 resistance after Spi1 knockdown in Mthfr knockout cells. The class given is cell-based.
For experiment [3], the system named is MLL-translocated primary patient samples with AML. The experiment is described as follows: OTX015 sensitivity of primary AML patient samples. The format is cell-based, human. As for the experimental part: as §1, §2
Previous studies have extensively characterized two common MTHFR genetic variants, C677T and A1298C, encoding MTHFR enzyme variants with reduced activity, resulting in hyperhomocysteinemia in human carriers. In particular, the homozygous variant 677 TT and 1298 CC genotypes are present in ˜10% of Caucasians and display only 30% and 60% of the homozygous wild-type 677 CC and 1298 AA enzyme activities, respectively (16, 17). […] Five KG1a clones either 1) wild-type 677 CC and 1298 AA, 2) heterozygous 677 CT or 1298 AC, or 3) homozygous 677 TT or 1298 CC, were selected and genotyped via allelic discrimination technique (FIG. 1A). […] Finally, we engineered a tractable MLL-AF9-driven mouse model of AML in which Mtfhr genotype status was either homozygous wild-type, heterozygous or homozygous knockout.

Experiment [4] concerns MYC transcriptional program. The experiment is described as follows: RNA sequencing and gene set enrichment after OTX015 for 24 hours. The class given is cell-based, human. The following applies: IMS-M2 and U937; irrespective of folate status; FDR<0.25.
A further experiment concerns AML cells. The experiment is described as follows: Apoptosis in response to OTX015 upon folic acid withdrawal. The format is cell-based, human. Here is the method: as §2
The test system of experiment [5] is AML cell lines: KG1a, OCI-AML2, and U937. The experiment is described as follows: OTX015 response and colony number after MTHFR-directed shRNAs in AML cell lines. The class given is cell-based, human. From the text:
Dietary folic acid undergoes several conversion steps into intermediate metabolites before generation of 5,10-methylene-THF (5,10-CH2 THF). 5,10-CH2 THF is then either reduced in the folate cycle or oxidized in the formate-producing tetrahydrofolate salvage cycle, depending on cellular needs. Despite the fact that folic acid can ultimately be processed through these two interconnected pathways, we observed in our previous ssGSEA analyses that active MYC gene signatures were highly correlated with activation of tetrahydrofolate salvage cycle, but not with folate cycle-related gene sets (data not shown). […] Five central enzymes control the multi-step conversion of dietary folate into 5,10-methylene-THF (5,10-CH2 THF) before its reduction to 5-methyl-THF (5-CH3 THF) and recycling to THF. […] Finally, we abrogated Mthfr expression in primary murine MLL-AF9-driven AML cells using two Mthfr-directed shRNAs before treatment of engrafted mice with JQ1 (data not shown).

Experiment [6] relates to AML cell lines (KG1a, IMS-M2, and U937). The experiment is described as follows: AML cell line sensitivity to BET/CDK7 inhibitors in standard versus nutrient-deprived (folic acid-starved) media. The class given is cell-based, human.
Excerpt: BET proteins interact with acetylated histones in active regulatory domains (promoters and enhancers) and promote RNA PolII activity. Despite the general nature of this mechanism, BET inhibitors have shown selective effects on gene expression through suppression of […] and MYC-related transcriptional programs (8, 11, 12). Two cohorts of AML patients (TCGA-LAML, n=198 and GSE14468, n=526) were queried with multiple gene sets related to MYC transcriptional programs as well as vitamin, amino acid, and nucleotide metabolism using single sample Gene Set Enrichment Analysis (ssGSEA). Correlation between gene sets was queried across all patients from each cohort to pinpoint potential crosstalk between active MYC programs and specific metabolic pathways (data not shown).
as §2

Where [7] appears, read: folic acid-starved media versus standard media, panel of AML cell lines.

The structures appear in SMILES notation.

Consider `Cc1sc2c(c1C)C(c1ccc(Cl)cc1)=N[C@@H](CC(=O)Nc1ccc(O)cc1)c1nnc(C)n1-2` [OTX015], for which the “number of colonies upon OTX015 treatment” value in experiment [1] is recorded as “substantially higher”. Also, the “increase of IC50 of OTX015” value was determined as 3 fold with IMS-M2 AML cells (hairpins targeting DHFR and DHFR2); 7 fold in the experiment on IMS-M2 AML cells (hairpins targeting MTHFR). Further, the “response to OTX015” value in the experiment on IMS-M2 AML cells (hairpins targeting SHMT1 and MTR) is listed as “did not significantly alter response”. The OTX015 sensitivity result with U937 cells is given as “markedly alleviated OTX015 sensitivity”. Further, the “number of colonies in presence of OTX015” value in the experiment on U937 cell colonies is listed as “significantly increased the number of U937 cell colonies”. Besides, the OTX015 resistance result with IMS-M2 and U937 cells is given as “significantly reduced OTX015 resistance”. The “resistance to OTX015” value in experiment [2] is listed as “abrogated resistance to OTX015”; in experiment [6] (folic acid starvation, KG1a, IMS-M2, U937) it was “consistently enhanced resistance”; in experiment [6] (phenylalanine and histidine starvation), “increased resistance to OTX015 in a subset of AML cell lines”. Besides, the “response to OTX015 (IC90, 5 days)” value in experiment [3] (16 samples, homozygous and compound heterozygous MTHFR genotype versus wild-type and heterozygous) is reported as “responded significantly less”. The IC50 result in experiment [3] (folic acid withdrawal) is “markedly increased”. Besides, the “enrichment of MYC gene sets in genes suppressed by OTX015” value in experiment [4] is recorded as “highly enriched”. The “apoptosis in response to OTX015” value in the experiment with AML cells was “decrease in apoptosis”. Further, the “response to increasing doses of OTX015” value in experiment [5] (MTHFR suppression) is “substantially weakened the response”. The “colony number upon OTX015 treatment” value in experiment [5] (MTHFR-depleted versus shCT-infected cells) is recorded as “significant increase in colony number”. Also, the “area under curve (AUC)” value in experiment [6] (setting [7]) is “significantly increased”. In addition, the “half-maximal inhibitory concentration (IC50)” value in experiment [6] (setting [7]) is given as “significantly increased”.
